{"source": "patent US20090087845A1", "about": "“Genetic Markers Of True Low Birth Weight” (priority 2005, published 2009)", "tested_on": "placental gene expression", "key": {"[1]": {"conditions": "rat placenta, 0, 5%, 10% in drinking water"}, "[2]": {"conditions": "rat placenta, 5% in drinking water throughout pregnancy"}, "[3]": {"conditions": "rat placenta, 5% or 10% in drinking water throughout pregnancy, p<0.05 in both t-tests"}, "[4]": {"conditions": "rat placenta, 10% in drinking water throughout pregnancy"}}, "data": [{"compound": "CCO", "note": "[alcohol]", "values": [{"measurement": "Mean 10%, Pex6 (1368264_at)", "setting": "10% alcohol group, Mean Contr 6.259265", "value": 5.303}, {"measurement": "Mean 10%, St3gal3 (1373607_at)", "setting": "10% alcohol group, Mean Contr 6.298338", "value": 5.59}, {"measurement": "Mean 10%, Kbtbd4_predicted (1374614_at)", "setting": "10% alcohol group, Mean Contr 6.314496", "value": 5.325}, {"measurement": "Mean 10%, Phyh (1393245_at)", "setting": "10% alcohol group, Mean Contr 6.483711", "value": 5.227}, {"measurement": "Mean 10%, LOC287533 (1373627_at)", "setting": "10% alcohol group, Mean Contr 6.526312", "value": 5.351}, {"measurement": "Mean 10%, Transcribed locus (1388465_at)", "setting": "10% alcohol group, Mean Contr 6.549543", "value": 5.667}, {"measurement": "Mean 10%, Mss4 (1376745_at)", "setting": "10% alcohol group, Mean Contr 6.629539", "value": 5.49}, {"measurement": "Mean 10%, Plag1 (1391714_at)", "setting": "10% alcohol group, Mean Contr 6.670053", "value": 5.554}, {"measurement": "Mean 10%, Sumf1_predicted (1389833_at)", "setting": "10% alcohol group, Mean Contr 6.839621", "value": 5.774}, {"measurement": "Mean 10%, Polr3e_predicted (1374415_at)", "setting": "10% alcohol group, Mean Contr 6.849002", "value": 5.78}, {"measurement": "Mean 10%, RGD1308959 (1399108_at)", "setting": "10% alcohol group, Mean Contr 6.859582", "value": 5.829}, {"measurement": "Mean 10%, Wig1 (1387021_at)", "setting": "10% alcohol group, Mean Contr 6.895168", "value": 5.95}, {"measurement": "Mean 10%, probe set 1379314_at", "setting": "10% alcohol group, Mean Contr 6.970231", "value": 5.514}, {"measurement": "Mean 10%, Ddx59 (1383635_at)", "setting": "10% alcohol group, Mean Contr 6.981191", "value": 6.018}, {"measurement": "Mean 10%, Rnd3 (1394077_at)", "setting": "10% alcohol group, Mean Contr 7.018906", "value": 6.069}, {"measurement": "Mean 10%, probe set 1393037_at", "setting": "10% alcohol group, Mean Contr 7.020197", "value": 6.384}, {"measurement": "Mean 10%, Slc39a4_predicted (1374366_at)", "setting": "10% alcohol group, Mean Contr 7.252498", "value": 5.652}, {"measurement": "Mean 10%, RGD1305243_predicted (1374076_at)", "setting": "10% alcohol group, Mean Contr 7.300542", "value": 6.175}, {"measurement": "Mean 10%, Transcribed locus (1393310_at)", "setting": "10% alcohol group, Mean Contr 7.364799", "value": 5.834}, {"measurement": "Mean 10%, Gusb (1367901_at)", "setting": "10% alcohol group, Mean Contr 7.420203", "value": 6.432}, {"measurement": "Mean 10%, probe set 1392953_at", "setting": "10% alcohol group, Mean Contr 7.435411", "value": 6.103}, {"measurement": "Mean 10%, Crsp9_predicted (1377263_at)", "setting": "10% alcohol group, Mean Contr 7.471023", "value": 5.974}, {"measurement": "Mean 10%, probe set 1389582_at", "setting": "10% alcohol group, Mean Contr 7.588214", "value": 6.297}, {"measurement": "Mean 10%, Transcribed locus (1393226_at)", "setting": "10% alcohol group, Mean Contr 7.705027", "value": 6.077}, {"measurement": "Mean 10%, RGD1565289_predicted (1375297_at)", "setting": "10% alcohol group, Mean Contr 7.731478", "value": 6.615}, {"measurement": "Mean 10%, Zfp207 (1394591_at)", "setting": "10% alcohol group, Mean Contr 8.125942", "value": 6.769}, {"measurement": "Mean 10%, Akr7a2 (1367843_at)", "setting": "10% alcohol group, Mean Contr 8.276972", "value": 6.866}, {"measurement": "Mean 10%, Tparl (1373392_at)", "setting": "10% alcohol group, Mean Contr 8.308305", "value": 7.589}, {"measurement": "Mean 10%, Mcts1 (1388660_at)", "setting": "10% alcohol group, Mean Contr 8.623529", "value": 7.771}, {"measurement": "Mean 10%, Hadhsc (1370237_at)", "setting": "10% alcohol group, Mean Contr 8.793343", "value": 8.015}, {"measurement": "Mean 10%, Asah1 (1374770_at)", "setting": "10% alcohol group, Mean Contr 9.074708", "value": 7.952}, {"measurement": "Mean 10%, Arts1 (1368356_a_at)", "setting": "10% alcohol group, Mean Contr 9.55972", "value": 8.725}, {"measurement": "Mean 10%, Ndufb5_predicted (1388304_at)", "setting": "10% alcohol group, Mean Contr 10.12286", "value": 9.267}, {"measurement": "Mean 10%, MGC72992 (1389325_at)", "setting": "10% alcohol group, Mean Contr 10.24563", "value": 9.571}, {"measurement": "Mean 10%, Vps35_mapped (1372806_at)", "setting": "10% alcohol group, Mean Contr 10.46183", "value": 9.969}, {"measurement": "sig down and spec alc, Arts1 (1368356_a_at)", "setting": "contr vs 5% vs 10% alcohol", "value": "YES"}, {"measurement": "sig down and spec alc, Cdca7 (1374540_at)", "setting": "contr vs 5% vs 10% alcohol", "value": "YES"}, {"measurement": "sig down and spec alc, Centa2 (1369725_at)", "setting": "contr vs 5% vs 10% alcohol", "value": "YES"}, {"measurement": "sig down and spec alc, Crsp9_predicted (1377263_at)", "setting": "contr vs 5% vs 10% alcohol", "value": "YES"}, {"measurement": "sig down and spec alc, Cul2_predicted (1378127_at)", "setting": "contr vs 5% vs 10% alcohol", "value": "YES"}, {"measurement": "sig down and spec alc, Ddx59 (1383635_at)", "setting": "contr vs 5% vs 10% alcohol", "value": "YES"}, {"measurement": "sig down and spec alc, Ggps1 (1377866_a_at)", "setting": "contr vs 5% vs 10% alcohol", "value": "YES"}, {"measurement": "sig down and spec alc, Gusb (1367901_at)", "setting": "contr vs 5% vs 10% alcohol", "value": "YES"}, {"measurement": "sig down and spec alc, Hadhsc (1370237_at)", "setting": "contr vs 5% vs 10% alcohol", "value": "YES"}, {"measurement": "sig down and spec alc, Mcpt6 (1387334_at)", "setting": "contr vs 5% vs 10% alcohol", "value": "YES"}, {"measurement": "sig down and spec alc, Ndufb5_predicted (1388304_at)", "setting": "contr vs 5% vs 10% alcohol", "value": "YES"}, {"measurement": "sig down and spec alc, Pex6 (1368264_at)", "setting": "contr vs 5% vs 10% alcohol", "value": "YES"}, {"measurement": "sig down and spec alc, Prdm2_mapped (1381229_at)", "setting": "contr vs 5% vs 10% alcohol", "value": "YES"}, {"measurement": "sig down and spec alc, RGD1305243_predicted (1374076_at)", "setting": "contr vs 5% vs 10% alcohol", "value": "YES"}, {"measurement": "sig down and spec alc, RGD1565289_predicted (1375297_at)", "setting": "contr vs 5% vs 10% alcohol", "value": "YES"}, {"measurement": "sig down and spec alc, Tparl (1373392_at)", "setting": "contr vs 5% vs 10% alcohol", "value": "YES"}, {"measurement": "sig down and spec alc, Transcribed locus (1377021_at)", "setting": "contr vs 5% vs 10% alcohol", "value": "YES"}, {"measurement": "sig down and spec alc, Trp53rk_predicted (1379488_at)", "setting": "contr vs 5% vs 10% alcohol", "value": "YES"}, {"measurement": "sig down and spec alc, Vps35_mapped (1372806_at)", "setting": "contr vs 5% vs 10% alcohol", "value": "YES"}, {"measurement": "number of placental genes down-regulated after excluding genes overlapping with caloric restriction, high fat diet and SSRI", "setting": "rat placenta", "value": 35, "unit": "genes"}, {"measurement": "number of placental genes up-regulated after excluding genes overlapping with caloric restriction, high fat diet and SSRI", "setting": "rat placenta", "value": 7, "unit": "genes"}, {"measurement": "placental expression of TP53 regulating kinase (Trp53rk)", "setting": "[1]", "value": "down-regulated"}, {"measurement": "placental expression of Zinc finger protein 365 (Zfp365)", "setting": "[1]", "value": "up-regulated"}, {"measurement": "placental expression of cell division cycle associated 7 (Cdca7)", "setting": "[1]", "value": "down-regulated"}, {"measurement": "placental expression of inositol polyphosphate-1-phosphatase (Inpp1)", "setting": "[1]", "value": "down-regulated"}, {"measurement": "placental expression of peroxisomal biogenesis factor 6 (Pex6)", "setting": "[1]", "value": "down-regulated"}, {"measurement": "placental expression of pleckstrin (Plek)", "setting": "[1]", "value": "down-regulated"}, {"measurement": "Mean 5% expression, probe set 1370527_a_at (casein kinase 1, delta, Csnk1d)", "setting": "[2]", "value": 9.839}, {"measurement": "Mean 5% expression, probe set 1380351_at", "setting": "[2]", "value": 4.282}, {"measurement": "Mean 5% expression, probe set 1381613_at (Transcribed locus)", "setting": "[2]", "value": 4.29}, {"measurement": "Mean 5% expression, probe set 1384272_at (Zinc finger protein 365, Zfp365)", "setting": "[2]", "value": 4.227}, {"measurement": "Mean 5% expression, probe set 1384691_at (Transcribed locus, weakly similar to XP_577161.1)", "setting": "[2]", "value": 4.65}, {"measurement": "Mean 5% expression, probe set 1384793_at", "setting": "[2]", "value": 4.485}, {"measurement": "Mean 5% expression, probe set 1388932_at (laminin, alpha 5, Lama5)", "setting": "[2]", "value": 9.683}, {"measurement": "Mean 5% expression, probe set 1391879_at (Transcribed locus)", "setting": "[2]", "value": 4.547}, {"measurement": "number of probe sets up-regulated (0<5%<10% pattern)", "setting": "[3]", "value": 8, "unit": "probe sets"}, {"measurement": "number of probe sets with reduced expression in exposed animals (0>5%>10% pattern)", "setting": "[3]", "value": 57, "unit": "probe sets"}, {"measurement": "Mean 10% expression, probe set 1370527_a_at (casein kinase 1, delta, Csnk1d)", "setting": "[4]", "value": 10.03}, {"measurement": "Mean 10% expression, probe set 1380351_at", "setting": "[4]", "value": 4.908}, {"measurement": "Mean 10% expression, probe set 1381613_at (Transcribed locus)", "setting": "[4]", "value": 4.634}, {"measurement": "Mean 10% expression, probe set 1384272_at (Zinc finger protein 365, Zfp365)", "setting": "[4]", "value": 4.517}, {"measurement": "Mean 10% expression, probe set 1384691_at (Transcribed locus, weakly similar to XP_577161.1)", "setting": "[4]", "value": 5.112}, {"measurement": "Mean 10% expression, probe set 1384793_at", "setting": "[4]", "value": 4.761}, {"measurement": "Mean 10% expression, probe set 1388932_at (laminin, alpha 5, Lama5)", "setting": "[4]", "value": 9.897}, {"measurement": "Mean 10% expression, probe set 1391879_at (Transcribed locus)", "setting": "[4]", "value": 4.937}]}]}
